Measured values from patent publication US6828315B1, “1-Amino triazoloc4,3-a! quinazoline-5-ones and/or -5-thiones inhibiting phosphodiesterase IV” (Warner-Lambert LLC, priority 1999, dated 2004).

SMILES	melting point [°C]
CN(C)c1nnc2n(Cc3cccnc3)c(=O)c3cc(Br)ccc3n12 [Compound 84, 7-Bromo-1-dimethylamino-4-pyridin-3-ylmethyl-4H-[1,2,4]triazolo[4,3-a]quinazolin-5-one]	142
CN(C)c1nnc2n(CC=Cc3ccccc3)c(=O)c3cc(Br)ccc3n12 [Compound 86, 7-Bromo-1-dimethylamino-4-(3-phenyl-allyl)-4H-[1,2,4]triazolo[4,3-a]quinazolin-5-one]	167
Cn1c(=O)c2ccccc2n2c(N3CCCCCC3)nnc12 [Compound 200, 1-(azepan-1-yl)-4-methyl-4H-[1,2,4]triazolo[4,3-a]quinazolin-5-one]	199 to 203
N#Cc1ccc(Cn2nc(N3CCCC3)n3c4ccc(Br)cc4c(=O)nc23)cc1 [Compound 144, 4-(7-bromo-5-oxo-1-(pyrrolidin-1-yl)-5H-[1,2,4]triazolo[4,3-a]-quinazolin-3-ylmethyl)-benzonitrile]	222
O=c1c2cc(Cl)ccc2n2c(N3CCCCCC3)nnc2n1Cc1ccccc1Cl [Compound 9, 1-(azepan-1-yl)-7-chloro-4-(2-chlorobenzyl)-4H-[1,2,4]triazolo[4,3-a]quinazolin-5-one]	160 to 162
O=c1c2cc(Br)ccc2n2c(N3CCCCCC3)nnc2n1Cc1ccc(F)cc1 [Compound 33, 1-Azepan-1-yl-7-bromo-4-(4-fluoro-benzyl)-4H-[1,2,4]triazolo[4,3-a]quinazolin-5-one]	158
O=c1nc2n(Cc3ccc(Br)cc3)nc(N3CCCCCC3)n2c2ccc(Cl)cc12 [Compound 116, 1-(azepan-1-yl)-7-chloro-3-(4-bromobenzyl)-3H-[1,2,4]triazolo(4,3-a]quinazolin-5-one]	244
Cn1c(=O)c2cc(Cl)ccc2n2c(N3CCC(Cc4ccccc4)CC3)nnc12 [Compound 210, 1-(4-benzylpiperidin-1-yl)-7chloro-4-methyl-4H-[1,2,4]triazolo[4,3-a]quinazolin-5-one]	180
O=c1nc2n(Cc3ccc(F)cc3)nc(N3CCCCCC3)n2c2ccc(Cl)cc12 [Compound 117, 1-(azepan-1-yl)-7-chloro-3-(4-fluorobenzyl)-3H-[1,2,4)triazolo[4,3-a]quinazolin-5-one]	224
CN(C)c1nnc2n(Cc3ccc(C#N)cc3)c(=S)c3cc(Br)ccc3n12 [Compound 245, 4-(7-Bromo-1-dimethylamino-5-thioxo-5H-[1,2,4]triazolo[4,3-a]quinazolin-4-ylmethyl)-benzonitrile]	276
COc1ccccc1Cn1c(=O)c2cc(Cl)ccc2n2c(N3CCCCCC3)nnc12 [Compound 16, 1-(azepan-1-yl)-7-chloro-4-(2-methoxybenzyl)-4H-[1,2,4]triazolo[4,3-a]quinazolin-5-one]	98 to 100
COc1ccc2c(c1)c(=O)n(Cc1ccccc1)c1nnc(N3CCCC3)n21 [Compound 196, 4-Benzyl-7-methoxy-1-pyrrolidin-1-yl-4H-[1,2,4]triazolo[4,3-a]quinazolin-5-one]	154
O=c1c2cc(Br)ccc2n2c(N3CCCC3)nnc2n1CCSc1ccccc1 [Compound 72, 7-Bromo-4-(2-phenylsulfenyl-ethyl)-1-pyrrolidin-1-yl-4H-[1,2,4]triazolo[4,3-a]quinazolin-5-one]	122
O=c1c2cc(Br)ccc2n2c(N3CCCCC3)nnc2n1Cc1ccccc1 [Compound 178, 4-benzyl-7-bromo-1-(piperidin-1-yl)-4H-[1,2,4]triazolo[4,3-a]-quinazolin-5-one]	183 to 185
O=c1c2cc(Br)ccc2n2c(N3CC=CC3)nnc2n1Cc1ccccc1 [Compound 186, 4-Benzyl-7-bromo-1-(2,5-dihydro-pyrrol-1-yl)-4H-[1,2,4]triazolo[4,3-a]quinazolin-5-one]	210
O=c1c2cc(Br)ccc2n2c(N3CCCC3)nnc2n1CC=Cc1ccccc1 [Compound 58, 7-Bromo-4-(3-phenyl-allyl)-1-pyrrolidin-1-yl-4H-[1,2,4]triazolo[4,3-a]quinazolin-5-one]	110
Cn1c(=O)c2ccc(Cl)cc2n2c(N3CCCCCC3)nnc12 [Compound 175, 1-(azepan-1-yl)-8-chloro-4-methyl-4H-[1,2,4]triazolo[4,3-a]-quinazolin-5-one]	179
O=c1c2cc(Br)ccc2n2c(N3CCC(O)C3)nnc2n1Cc1ccccc1 (stereo not shown) [Compound 187, 4-Benzyl-7-bromo-1-(3-hydroxy-pyrrolidin-1-yl)-4H-[1,2,4]triazolo[4,3-a]quinazolin-5-one]	176
CCn1c(=O)c2cc(Cl)ccc2n2c(N3CCCCCC3)nnc12 [Compound 204, 1-(azepan-1-yl)-7-chloro-4-ethyl-4H-[1,2,4]triazolo[4,3-a]-quinazolin-5-one]	98 to 100
O=c1c2cc(Br)ccc2n2c(N3CCSCC3)nnc2n1Cc1ccccc1 [Compound 181, 4-Benzyl-7-bromo-1-thiomorpholin-4-yl-4H-[1,2,4]triazolo[4,3-a]quinazolin-5-one]	235
Cc1ccc(Cn2nc(N3CCCCCC3)n3c4ccc(Cl)cc4c(=O)nc23)cc1 [Compound 112, 1-Azepan-1-yl-7-chloro-3-(4-methyl-benzyl)-3H-[1,2,4]triazolo[4,3-a]quinazolin-5-one]	182
Cc1ccc2c(c1)c(=O)n(Cc1ccccc1)c1nnc(N3CCCC3)n21 [Compound 191, 4-Benzyl-7-methyl-1-pyrrolidin-1-yl-4H-[1,2,4]triazolo[4,3-a]quinazolin-5-one]	189
O=c1nc2n(C/C=C/c3ccccc3)nc(N3CCCCC3)n2c2ccc(Br)cc12 [Compound 141, 7-Bromo-3-((E)-3-phenyl-allyl)-1-piperidin-1-yl-3H-[1,2,4]triazolo[4,3-a]quinazolin-5one]	187
O=c1nc2n(Cc3cccnc3)nc(N3CCCCCC3)n2c2ccc(Br)cc12 [Compound 139, 1-(azepan-1-yl)-7-bromo-3-(pyridin-3-ylmethyl)-3H-[1,2,4]triazolo[4,3-a]quinazolin-5-one]	192
Cn1c(=O)c2cc(Cl)ccc2n2c(N3CC4(C)CC3CC(C)(C)C4)nnc12 (stereo not shown) [Compound 211, 7-chloro-4-methyl-1-(1,3,3-trimethyl-6-azabicyclo[3,2,1]oct-6yl)-4H-[1,2,4]triazolo[4,3-a]-quinazolin-5-one]	165
O=c1c2cc(Br)ccc2n2c(N3CC=CCC3)nnc2n1Cc1ccccc1 [Compound 185, 4-Benzyl-7-bromo-1-(3,6-dihydro-2H-pyridin-1-yl)-4H-[1,2,4]triazolo[4,3-a]quinazolin-5-one]	172
CC(=O)Oc1ccc(Cn2nc(N3CCCC3)n3c4ccc(Br)cc4c(=O)nc23)cc1 [Compound 147, Acetic acid 4-(7-bromo-5-oxo-1-pyrrolidin-1-yl-5H-[1,2,4]triazolo[4,3-a]quinazolin-3-ylmethyl)phenyl ester]	199
O=C(O)Cc1ccc(Cn2nc(N3CCCCCC3)n3c4ccc(Br)cc4c(=O)nc23)cc1 [Compound 138, [4-(7-Bromo-5-oxo-1-perhydro-azepin-1-yl-5H-[1,2,4]triazolo[4,3-a]quinazolin-3-ylmethyl)-phenyl]-acetic acid]	269
